Key:
[1] = tested on: CCRF-CEM cells; assay: Competition of cold 2F-AraG with 8-[3H]-AraG uptake, CCRF-CEM; type: cell-based; details: increasing 2F-AraG 1-100 µM, 60 or 120 minutes
Protocol: FIG. 2.3A illustrates a graph of 5 × 10^5CCRF-CEM cells were incubated, in triplicate, with 1uCi 8H^3-AraG (1mCi/ml) and increasing amounts of cold 2F-AraG or DMSO for either 60 or 120 minutes. Percent of control uptake was calculated as: measured cpm of sample/ cpm accumulated 1uCi 8[H^3]-AraG control x 100.
Previously we successfully synthesized a novel ^18F derivative of 2-deoxyguanosine analog, 9-β-D-arabinofuranosylguanine (“^18F-AraG” or “[^18F]F—AraG)”, to use as a molecular probe (FIG. 2.1). [^18F]AraG cell uptake was evaluated in leukemia cell line, CCRF-CEM, and was compared with [^3H]AraG cell uptake. […] To determine whether cold derivative 2F-AraG competes with the uptake of 8-[^3H]—AraG, we studied the [^3H]-Arag uptakes by CCRF-CEM, MOLT-4 (Leukemia cell line) and Raji (human Burkitt’s lymphoma cell line) and competition with cold 2F-AraG (FIGS. 2.3A and 2.3B). […] Competition assays indicate that cold derivative 2F-Arag competes with the uptake of the 8-[^3H]—AraG, indicating similar uptake pathways.

[2] = some patients; cited from earlier work
[3] = tested on: heart; details: cited from earlier work
[4] = biological target: T1, deoxyguanosine kinase (dGK) (Homo sapiens, UniProt Q16854); assay: Enzyme kinetics of dGK; type: biochemical; details: dGuo positive control, unit not given
T1 sequence (Q16854 40-277): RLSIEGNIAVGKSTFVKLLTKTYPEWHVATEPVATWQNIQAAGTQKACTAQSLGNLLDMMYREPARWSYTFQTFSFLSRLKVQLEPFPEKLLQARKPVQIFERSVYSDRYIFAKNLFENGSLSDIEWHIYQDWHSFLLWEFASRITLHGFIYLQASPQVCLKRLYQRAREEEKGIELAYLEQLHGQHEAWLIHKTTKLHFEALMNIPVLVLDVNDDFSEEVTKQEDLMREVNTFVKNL
Source text: […]. Lines indicate best fit. […]. Lines indicate best fit. […].

[5] = tested on: colon cancer model; type: in vivo, mice; details: tumors and tumor draining lymph nodes
Source text: FIGS. 13A-13D show data from embodiments of the invention. FIG. 13A. […] FIG. 13B. […] White circles indicate tumor draining lymph nodes, yellow arrows point to tumors. FIG. 13C.
The discovery of the immune response that results from chemotherapy-induced tumor cell death, termed immunogenic cell death (32), has sparked interest in harnessing chemotherapy’s immunomodulatory effects for possible synergistic combinations with immunotherapeutics (33,34).

[6] = substrate: Nc1nc2c(ncn2[C@H]2C[C@H](O)[C@@H](CO)O2)c(=O)[nH]1; assay: purified protein, by the assay type; details: other: dGuo positive control, unit inferred

## Nc1nc2c(ncn2[C@@H]2O[C@H](CO)[C@@H](O)[C@@H]2F)c(=O)[nH]1 [2F-AraG, 2′-Deoxy-2′-fluoro-9-β-D-arabinofuranosylguanine]
[1]
  Effect on [3H]-AraG uptake: decrease

## Nc1nc2c(ncn2[C@@H]2O[C@H](CO)[C@@H](O)[C@@H]2O)c(=O)[nH]1 [AraG, 9-(β—D—Arabinofuranosyl)guanine]
[2]
  Therapeutic serum level at which neurotoxic side effects are reported: ~ 150 µM

## CC(C)Oc1cccc(C=NCC(C)(C)CNCCNCC(C)(C)CN=Cc2cccc(OC(C)C)c2[O-])c1[O-].[68Ga+3].[I-] [^68Ga-Galmydar]
[3]; preclinical studies
  Cardiac uptake of tracer in doxorubicin treated animals: reduction in cardiac uptake

## Nc1nc2c(ncn2[C@H]2C[C@H](O)[C@@H](CO)O2)c(=O)[nH]1 [dGuo, 2′-deoxyguanosine]
[4]
  Vmax of dGK: 123.2

## COc1cccc2c1C(=O)c1c(O)c3c(c(O)c1C2=O)C[C@@](O)(C(=O)CO)C[C@@H]3O[C@H]1C[C@H](N)[C@H](O)[C@H](C)O1 [doxorubicin]
[3]; in vivo
  Effect of treatment on 18FDG uptake in the heart: increase

## Paclitaxel/carboplatin
[5]
  Change in [18F]F-AraG signal intensity after treatment: did not lead to appreciable changes

B1: deoxyguanosine kinase (dGK) (Homo sapiens) (protein)
chain: T1 sequence (Q16854 40-277)
[6]
  Km: 5.08 µM
